What was measured:
[1] = tested on: Saccharomyces cerevisiae wild type strain BY4743; assay: AF1 combined gene expression and metabolite data mapped to KEGG reactions and pathways; format: cell-based; details: yeast AF1
Source text: In AF1, two different technologies were utilized: gene expression analysis (for examination of mRNA expression) and metabolite analysis. […] As noted previously, existing metabolic databases may be helpful in practicing the methods and systems of the present invention, but many databases include limitations that make their use in data analysis and pathway mapping less than straightforward. […] This caveat to KEGG makes it difficult to pinpoint the correct pathway when attempting to link a gene to a specific pathway. […] The pathway score indicates how meaningful the mapping is, or how likely it is to be correctly indicative of the pathway involved in the perturbation under examination. The method provides a pathway score based on perturbation levels of genes and/or compounds and the information content of each gene and/or compound in the pathway, i.e., a pathway score indicates the extent to which other pathways are mapped to a gene/compound. For example, imagine that two genes are perturbed in a particular experiment. One gene maps to only one pathway, giving a high degree of probability that the perturbed pathway is the one identified in the mapping. The second gene maps to three pathways. In the later example, there is only one-third the probability that the pathway identified in the mapping is the one perturbed. The present invention provides a method for calculating the pathway scores, so that more weight is given to a score of a gene or compound that maps to only one pathway than to a score of a gene or compound that maps to multiple pathways. […] Where n=the total number of genes in the pathway; ipath—count=the number of pathways containing a gene; and j=the number of genes in the pathway that are perturbed. Another factor to be considered when weighting a pathway score is the degree of perturbation. Degree of perturbation can be calculated, for example, based on a number of standard deviations from a norm, and included in an equation such as the one shown above, so that not only the number of pathways is taken into account, but also accounts for the amount of gene transcript or compound present as compared to a control. Compounds were also linked to pathways using the KEGG database. KEGG links 676 compounds measured in AF1 to a total of 92 pathways. Of the 676 compounds under consideration, 77 were detected in the AF1 samples. […] The multiple mapping feature of KEGG makes it difficult to pinpoint the correct pathway when trying to link a compound to a specific pathway. […] A pathway score calculation is applied to the compounds to account for both information content (number of pathways a compound maps to) and perturbation level. The data were then combined to determine the number of reactions showing an enzyme and at least one compound perturbed, and to determine the number of pathways having at least one enzyme and one perturbed compound perturbed. The results of the analysis are represented in Tables 16 and 17, and were difficult to interpret, illustrating that the ability to draw conclusions from compound mapping to pathways is limited when absent additional data.

[2] = tested on: Saccharomyces cerevisiae wild type strain BY4743; assay: AF1 metabolite analysis (GC-MS, LC-MS) of yeast cells treated with antifungal drugs; format: cell-based; parameters: Fold Change: scale not given here
Arabidopsis thaliana [3] = assay: MOA1 biochemical (metabolite) profiling by LC-MS and GC-MS
[4] = tested on: Arabidopsis thaliana plants; assay: SOA1 phenotypic analysis of herbicide-treated Arabidopsis plants (MIC, Tmic, leaf traits); format: in vivo; details: for Characteristic symptoms (phenotype): herbicide treated Arabidopsis; for Dev. leafCurling / Dev. leafTwisting / Dev. matureLeafAnthocyanins / Dev. matureLeafChlorosis / Dev. matureLeafNecrosis / Dev. newLeafAnthocyanins / Dev. newLeafChlorosis / Dev. newLeafNecrosis / Dev. pointedLeaves: numeric value standardized to mock treated; for Dev. leafWidth: numeric value standardized to the average response for the mock treated tissues; for Symptom Class: three-week-old Arabidopsis plants treated with herbicide, phenotype classes of FIG. 12
Arabidopsis thaliana [5] = assay: MOA1 phenotypic profiling of Arabidopsis sprayed with unknown and commercial herbicides; format: in vivo; details: Ward's method
Magnaporthe grisea = format: cell-based
[6] = 250 μg/ml (partially inhibitory)

## OC(Cn1cncn1)(Cn1cncn1)c1ccc(F)cc1F [Fluconazole]
[1]
  # Reactions (title: Number Of Pathways Having at Least One Enzyme and One Compound Perturbed): 15

## CC[C@@H]([C@H](C)O)n1ncn(-c2ccc(N3CCN(c4ccc(OC[C@@H]5CO[C@@](Cn6cncn6)(c6ccc(F)cc6F)C5)cc4)CC3)cc2)c1=O [Posaconazole]
[1]
  # Reactions (title: Number Of Pathways Having at Least One Enzyme and One Compound Perturbed): 3
[2]; metabolite NacetylD-glucosamine, platform nLC
  Fold Change: 0
[2]; metabolite NacetylD-glucosamine, platform pLC
  Fold Change: 0
[2]; metabolite NacetylL-glutamate, platform pLC
  Fold Change: 0
[2]; metabolite NacetylL-ornithine, platform nLC
  Fold Change: 0
[2]; metabolite niacinamide, platform pLC
  Fold Change: 0
[2]; metabolite nopaline, platform pLC
  Fold Change: 0
[2]; metabolite ornithine3, platform GC
  Fold Change: 0.041
[2]; metabolite orotic acid, platform nLC
  Fold Change: 0
[2]; metabolite phenylpyruvic acid, platform nLC
  Fold Change: 0
[2]; metabolite phosphoenolpyruvate, platform nLC
  Fold Change: 0
[2]; metabolite phosphoenolpyruvate, platform pLC
  Fold Change: 0
[2]; metabolite pinitol, platform nLC
  Fold Change: 0
[2]; metabolite porphobilinogen, platform nLC
  Fold Change: 0
[2]; metabolite progesterone, platform pLC
  Fold Change: 0
[2]; metabolite retinoic acid, platform nLC
  Fold Change: 0
[2]; metabolite riboflavin, platform pLC
  Fold Change: 0
[2]; metabolite salicylic/HObenzoic, platform nLC
  Fold Change: 0
[2]; metabolite shikimic acid, platform nLC
  Fold Change: 0
[2]; metabolite sinapinic acid, platform nLC
  Fold Change: 0
[2]; metabolite sugar-phosphate, platform pLC
  Fold Change: 0
[2]; metabolite thiamine, platform pLC
  Fold Change: 0
[2]; metabolite thymine, platform nLC
  Fold Change: 0
[2]; metabolite thymine, platform pLC
  Fold Change: 0
[2]; metabolite tryptophan, platform pLC
  Fold Change: 0
[2]; metabolite uric acid, platform pLC
  Fold Change: 0
[2]; metabolite urocanic acid, platform nLC
  Fold Change: 0
[2]; metabolite urocanic acid, platform pLC
  Fold Change: 0
[2]; metabolite xanthosine (diH2O), platform pLC
  Fold Change: 0
[2]; metabolite xanthosine-DiH2O, platform nLC
  Fold Change: 0
[2]; metabolite zeatin, platform nLC
  Fold Change: 0
[2]; metabolite zeatin, platform pLC
  Fold Change: 0

## CC(=O)N1CCN(c2ccc(OCC3COC(Cn4ccnc4)(c4ccc(Cl)cc4Cl)O3)cc2)CC1 (centres unmarked) [Ketoconazole]
[1]
  # Reactions (title: Number Of Pathways Having at Least One Enzyme and One Compound Perturbed): 24
[2]; P < 0.1, yeast, 2x MIC, two hours
  # Compounds perturbed by treatment: 15

## CP(=O)(O)CCC(N)C(=O)O (centres unmarked) [Glufosinate]
Arabidopsis thaliana [3]; MOA1, 20 min and 1 hr after spraying
  Stress-related (commonly regulated) metabolites: Only a few, if any, stress-related metabolites were observed
[4]
  Dev. tMic: 1
  Characteristic symptoms (phenotype): Chlorosis and leaf curling
  Dev. leafCurling: 2
  Dev. leafTwisting: 1
  Dev. matureLeafAnthocyanins: 0
  Dev. matureLeafChlorosis: 3
  Dev. matureLeafNecrosis: 0
  Dev. newLeafAnthocyanins: 0
  Dev. newLeafChlorosis: 3
  Dev. newLeafNecrosis: 0
  Dev. pointedLeaves: 1
  Dev. leafWidth: −2
  Symptom Class: 3
Arabidopsis thaliana [5]
  Hierarchical cluster analysis of the eleven phenotypic characteristics / phenotype: clustered with amitrole
Magnaporthe grisea
  Nitrogen sources M. grisea can utilize in presence of compound: only able to utilize glutamine and glutamate as nitrogen sources

## O=C(O)CNCP(=O)(O)O [Glyphosate]
Arabidopsis thaliana [3]; after one hour
  Tyrosine level (metabolite downstream from the SOA): decreased relative to the control after one hour
[4]
  Dev. tMic: 2
  Characteristic symptoms (phenotype): anthocyanin accumulation in the older leaves accompanied by chlorosis of the newly emerging leaves
  Dev. leafCurling: 0
  Dev. leafTwisting: 0
  Dev. matureLeafAnthocyanins: 3
  Dev. matureLeafChlorosis: 1
  Dev. matureLeafNecrosis: 3
  Dev. newLeafAnthocyanins: 1
  Dev. newLeafChlorosis: 2
  Dev. newLeafNecrosis: 0
  Dev. pointedLeaves: 1
  Dev. leafWidth: 0
  Symptom Class: 4
Arabidopsis thaliana [5]
  Hierarchical cluster analysis of the eleven phenotypic characteristics / phenotype: clustered with amitrole
Magnaporthe grisea; [6]
  Growth of M. grisea with ammonium or glutamine provided: Little growth defect
  Growth of M. grisea with nitrate, nitrite, or glutamate as the sole nitrogen source: inhibited growth

Source: US20040019430A1, “Methods and systems for analyzing complex biological systems” (priority 2001, published 2004)
